Measured values from patent US20110207609A1, “Piperazine Compounds With Herbicidal Effect” (BASF SE, priority 2008, published 2011).

What was measured:
MATIN [1] = experiment: greenhouse test, pre-emergence treatment; assay type: in vivo, Matricaria inodora; conditions: 2.0 kg/ha, scale 0 to 100
Source text: (§1) The culture containers used were plastic flowerpots containing loamy sand with approximately 5.8% of humus as the substrate. The seeds of the test plants were sown separately for each species.
(§2) For the pre-emergence treatment, the active compounds, which had been suspended or emulsified in water, were applied directly after sowing by means of finely distributing nozzles. The containers were irrigated gently to promote germination and growth and subsequently covered with transparent plastic hoods until the plants had rooted. This cover caused uniform germination of the test plants, unless this has been impaired by the active compounds.
(§3) Depending on the species, the plants were kept at 10-25° C. or 20-35° C. The test period extended over 1 to 4 weeks. During this time, the plants were tended, and their response to the individual treatments was evaluated.
(§4) Evaluation was carried out using a scale from 0 to 100. 100 means no emergence of the plants, or complete destruction of at least the aerial moieties, and 0 means no damage, or normal course of growth. A good herbicidal activity is given at values of at least 70 and a very good herbicidal activity is given at values of at least 85.

AGSST = experiment: greenhouse test, post-emergence treatment; assay type: in vivo, Agrostis alba; conditions: 2.0 kg/ha, scale 0 to 100
Source text: as §1
(§5) For the post-emergence treatment, the test plants were first grown to a height of 1.5 to 15 cm, depending on the plant habit, and then treated with the active compounds which had been suspended or emulsified in water. For this purpose, the test plants were either sown directly and grown in the same containers, or they were first grown separately as seedlings and transplanted into the test containers a few days prior to treatment.
as §3, §4

MATIN [2] = experiment: greenhouse test, post-emergence treatment; assay type: in vivo, Matricaria inodora; conditions: 2.0 kg/ha, scale 0 to 100
Source text: as §1, §5, §3, §4

CHEAL = experiment: greenhouse test, post-emergence treatment; assay type: in vivo, Chenopodium album; conditions: 1.0 kg/ha, scale 0 to 100
Source text: as §1, §5, §3, §4

SETVI = experiment: greenhouse test, pre-emergence treatment; assay type: in vivo, Setaria viridis; conditions: 1.0 kg/ha, scale 0 to 100
Source text: as §1, §2, §3, §4

ECHCG = experiment: greenhouse test, post-emergence treatment; assay type: in vivo, Echinochloa crus-galli; conditions: 1.0 kg/ha, scale 0 to 100
Source text: as §1, §5, §3, §4

GALAP = experiment: greenhouse test, post-emergence treatment; assay type: in vivo, Galium aparine; conditions: 0.5 kg/ha, scale 0 to 100
Source text: as §1, §5, §3, §4

AMARE = experiment: greenhouse test, post-emergence treatment; assay type: in vivo, Amaranthus retroflexus; conditions: 0.5 kg/ha, scale 0 to 100
Source text: as §1, §5, §3, §4

APESV = experiment: greenhouse test, pre-emergence treatment; assay type: in vivo, Apera spica-venti
Protocol: as §1
(§6) The containers were irrigated gently to promote germination and growth and subsequently covered with transparent plastic hoods until the plants had rooted.
as §3, §4

SETFA = experiment: greenhouse test, pre-emergence treatment; assay type: in vivo, Setaria faberi; conditions: comparative experiment, 0.5 kg/ha
Protocol: as §1, §6, §3, §4

[3] = comparative experiment, 0.5 kg/ha

CN1C(=O)C(C)(Cc2ccccc2)N(C)C(=O)C1=Cc1occc1Br (racemic) [I-11]
herbicidal activity (MATIN [1]): very good (a very good herbicidal activity is given at values of at least 85) | herbicidal activity (AGSST): very good (a very good herbicidal activity is given at values of at least 85) | herbicidal activity (MATIN [2]): very good (a very good herbicidal activity is given at values of at least 85)

Cc1nn(C)c(Cl)c1C=C1C(=O)N(C)C(C)(Cc2ccccc2)C(=O)N1C (racemic) [I-15]
herbicidal activity (CHEAL): very good (a very good herbicidal activity is given at values of at least 85) | herbicidal activity (SETVI): very good (a very good herbicidal activity is given at values of at least 85)

CN1C(=O)C(=Cc2cn(C)c3cccc([N+](=O)[O-])c23)NC(=O)C1(C)Cc1ccccc1 (racemic) [I-18]
herbicidal activity (ECHCG): good (A good herbicidal activity is given at values of at least 70)

Cc1ncn(C)c1C=C1C(=O)N(C)C(C)(Cc2ccccc2)C(=O)N1C (racemic) [I-38]
herbicidal activity (GALAP): very good (a very good herbicidal activity is given at values of at least 85) | herbicidal activity (AMARE): good (A good herbicidal activity is given at values of at least 70)

CN1C(=O)C(C)(Cc2ccccc2)N(C)C(=O)C1=Cc1cc(Cl)sc1Cl (racemic) [I-56]
herbicidal activity (APESV; [3]): 80% | herbicidal activity (SETFA): 80%

CN1C(=O)C(C)(Cc2ccccc2)N(C)C(=O)C1=Cc1cnn2cccnc12 (racemic) [I-61]
herbicidal activity (APESV; 1.0 kg/ha, scale 0 to 100): good (A good herbicidal activity is given at values of at least 70)

CN1C(=O)C(Cc2cscc2C(F)(F)F)N(C)C(=O)C1Cc1ccccc1 (centres unmarked) [Ex. I.236.1, reference compound]
herbicidal activity (APESV; [3]): 20%

CN1C(=O)C(C)(Cc2ccccc2)N(C)C(=O)C1Cc1cscc1C(F)(F)F (centres unmarked) [II-21]
herbicidal activity (APESV; [3]): 98% | herbicidal activity (SETFA): 95%
